Patent publication US20110112187A1, “Use Of Tranilast And Derivatives Thereof For The Therapy Of Neurological Conditions” (priority 2007, published 2011)

Tests used:
neural stem cells = assay: In vitro differentiation assay on adult neuronal stem cells (beta-III-tubulin promoter dual luciferase reporter); format: cell-based, rat; conditions: 48 hrs; concentration ranges within 0.01 to 100 μM; versus sham treated cells
Source text: The neuroregenerative effect of the compounds according to the present invention can be assayed in vitro by measuring their stimulation of the differentiation of neuronal stem cells. Therefore, adult neuronal stem cells have to be isolated and subsequently cultivated in a suitable culture medium. After several passages in vitro the stem cells have to be co-transfected with a DNA construct coding for two discriminable reporter proteins one of them under the control of a constitutive promoter and the other under the control of a beta-III-tubulin promoter. The beta-III-tubulin promoter is induced during the process of neuronal stem cell differentiation; therefore the reporter protein under the control of this promoter serves as a marker for the stem cell differentiation in such an in vitro dual reporter assay (Schneider et al., J Clin Investigation 2005; 115:2083-2098). The person skilled in the art knows several suitable constitutive promoters such as the SV40-promoter, the TK-promoter, or the CMV-promoter. As discriminable reporter proteins for such a dual reporter assay one can use discriminable luciferases such as firefly luciferase and Renilla luciferase. The transfected cells have to be incubated with the test compound and with positive and negative controls for normalization and background correction. As a positive control compound one can use retinoic acid (Guan et al., Cell Tissue Res. 2001; 305:171-176; Jacobs et al., Proc. Natl. Acad. Sci. USA 2006; 103:3902-3907), a suitable negative control is the sham treatment of the cells. The neroregenerative activity of the test compound is determined as the ratio of the signal of the beta-III-tubulin promoter controlled reporter versus the signal of the constitutively expressed reporter and is expressed as fold from the control. This assay is suitable to assess the neuroregenerative activity of tranilast and derivatives thereof, but also can be used to screen for other potential neuroregenerative compounds. Preferably, such a screening can be used to test compounds which are already known to be suitable as a medicament in terms of its toxicology, bioavailability, solubility, stability etc.
Neural stem cells were isolated from the subventricular zone of 4 week-old male Wistar rats as described (Maurer et al, Proteome Sci. 2003; 1:4). Cells were cultivated in Neurobasal medium (Invitrogen) supplemented with B27 (Invitrogen), 2 mM L-glutamine, 100 units/ml penicillin, 100 units/ml streptomycin, 20 ng/ml […] growth factor (EGF), 20 ng/ml fibroblast growth factor-2 (FGF-2), and […] heparin. Once a week the neural stem cells were passaged and experiments were performed after 4 weeks in vitro. For DNA transfection, the cells were dissociated and plated on poly-L-ornithin/laminin-coated 96-well plates at a density of 50.000 cells/well. Cotransfection with the pGL3-p-βIII-tubulin vector (100 ng/well) and the pRL SV40 vector (100 ng/well) was carried out according to the FuGene6 Transfection protocol (Roche). The pRL SV40 vector (Promega) served as an internal control vector.
To amplify the class III β-tubulin gene promoter (fragment −450-+54), rat genomic DNA was used as a template for PCR (Dennis et al., Gene 2002; 294:269-277). The amplified fragment was inserted into the Mlu I/Xho I site of the pGL3-Basic firefly luciferase reporter vector (Promega) to generate the pGL3-p-βIII-tubulin experimental vector.
After overnight incubation, the plate was decanted and given in 8-fold replicates fresh medium containing tranilast (Sigma) or vehicle. As a positive control for in vitro differentiation, stem cells were treated by adding 1 μM retinoic acid (Sigma) to the medium missing the mitogens.
After 48 hrs, the cells were harvested to prepare the cellular extracts for luciferase assay following the directions of the manufacturer (Promega). […]

SH-SY5Y neuronal cells [1] = assay: In vitro anti-apoptosis assay (Caspase-Glo 3/7, staurosporine induced apoptosis); format: cell-based, human; conditions: for anti-apoptotic effect: reduction of the staurosporine induced apoptosis: co-incubation with staurosporine
Procedure: Neuroprotection is attainable via the inhibition of apoptosis of affected neurons. The anti-apoptotic effect of tranilast and its derivatives can be assayed in vitro by measuring the caspase-3 and caspase-7 activities. These members of the cysteine aspartic acid-specific protease (caspase) family play key effector roles in apoptosis in mammalian cells. Cortical neurons have to be isolated and subsequently cultivated in a suitable culture medium. The cells have to be incubated with the test compound in the presence of an apoptotic substance such as staurosporine. Parallel approaches with staurosporine alone and sham treatment of the cells serve as […] controls. The assay allows evaluating whether the test compound can compensate either completely or partially for the apoptotic effect of staurosporine. This assay is suitable to assess the neuroprotective activity of tranilast and derivatives thereof, but also can be used to screen for other potential neuroprotective compounds. Preferably, such a screening can be used to test compounds which are already known to be suitable as a medicament in terms of its toxicology, bioavailability, solubility, stability etc.
The neuroprotective effect of compounds can be assayed in vitro by measuring caspase-3 and caspase-7 activities. These members of the cysteine aspartic acid-specific protease (caspase) family play a key effector role in apoptosis in mammalian cells.
The human neuroblastoma cell-line SH-SY5Y (American Type Culture Collection) maintained in DMEM with high glucose supplemented with 20% FBS was used for the apoptosis assay. Alternatively one can analyse the apoptosis of primary cortical neurons which can be isolated from E18 rats and subsequently cultivated in suitable culture medium. 2.5×10^4 SH-SY5Y cells were seeded in 96-well plates and stimulated 24 h later with tranilast or vehicle in the presence of the apoptosis inducing compound staurosporine (0.5 μM, Calbiochem). After 5 h incubation at 37° C., caspase-Glo 3/7 reagent (Promega) containing luciferase and luminogenic substrate was added to the cells. The cleavage of the substrate by caspase-3 and caspase-7 was detected 30 min later using a luminometer (Berthold Technologies, Mithras LB 940). The Luminescence which is proportional to the amount of caspase activity serves as a measure for the apoptosis of the treated neurons. Tranilast was tested in a range from 0.8 μM to 100 μM final concentration.
Analogously to Example 3, various derivatives of tranilast (N-(3′,4′-methylenedioxycinnamoyl)-anthranilic acid (FIG. 2a (ChemBridge Corporation)), 2-(3′,4′-dimethoxycinnamoylamino)-toluene (FIG. 2b (ChemBridge Corporation)), N-cinnamoyl-anthranilic acid (FIG. 2c (ChemBridge Corporation)), and 2-(3′,4′-dimethoxycinnamoylamino)-anisole (FIG. 2d (Ambinter SARL))) have been analysed for their anti-apoptotic activity. The SH-SY5Y cells have been incubated with these derivatives (1 μM) either alone or in the presence of staurosporine (0.5 μM). Incubation with staurosporine (0.5 μM) alone served as positive control and incubation with vehicle served as negative control. In the case of 3-(4′-chlorocinnamoylamino)-anisole (FIG. 2e (Sigma)) the SH-SY5Y cells have been incubated with this derivative (1 μM) either alone or in the presence of staurosporine […]. Accordingly, incubation with staurosporine […] alone served as positive control and incubation with vehicle served as negative control. The degree of apoptosis relative to the staurosporine control is shown in FIG. 4 a (vehicle (sham): 9% staurosporine (SP): 100%; tranilast: 8%; tranilast plus staurosporine: 75%; derivative A: 3%; derivative A plus staurosporine: 27%; derivative B: 7%; derivative B plus staurosporine: 79%; derivative C: 2%; derivative C plus staurosporine: 20%; derivative D: 7%; derivative D plus staurosporine: 80%) and FIG. 4 b (vehicle (sham): 13%; staurosporine: 100%; derivative E: 6%; derivative E plus staurosporine: 25%).

SH-SY5Y neuronal cells [2] = assay: In vitro viability assay (constitutive Renilla luciferase reporter); format: cell-based, human; conditions: 0.8 μM to 50 μM, 5 h
Procedure: The viability assay allows for further assessment of test compounds regarding their effect on cells such as neurons. Therefore, a stably transfected cell line (e.g. SH-SY5Y cells) with a reporter construct (e.g. a luciferase construct) has to be incubated with the test compound and in parallel with positive and negative controls (e.g. staurosporine and sham, respectively). Subsequently, the signal generated by the reporter construct serves as a readout for the viability of the cells in the presence of the test compound. The assay enables the evaluation of potential neurotoxic effects of the test compound itself. […]
SH-SY5Y neuronal cells stably transfected with a Renilla luciferase construct under the SV40 promoter were seeded in 96-well plates at a density of 2.5×10^4 cells per well. […] The Renilla luciferase activity was measured 5 h later using a luminometer (Berthold Technologies, Mithras LB 940). […]
Analogously to Example 5, various derivatives of tranilast (N-(3′,4′-methylenedioxycinnamoyl)-anthranilic acid (FIG. 2a (ChemBridge Corporation)), 2-(3′,4′-dimethoxycinnamoylamino)-toluene (FIG. 2b (ChemBridge Corporation)), N-cinnamoyl-anthranilic acid (FIG. 2c (ChemBridge Corporation)), and 2-(3′,4′-dimethoxycinnamoylamino)-anisole (FIG. 2d (Ambinter SARL))) have been analysed for their effect on the viability of neuronal cells. […]

[3] = compound 1 μM alone, FIG. 4a (control staurosporine 0.5 μM)
[4] = compound 1 μM plus staurosporine 0.5 μM, FIG. 4a

| Compound | differentiation of neural stem cells to neurons (relative induction of the class III β-tubulin gene promoter controlled luciferase signal) (neural stem cells) | degree of apoptosis relative to the staurosporine control (SH-SY5Y neuronal cells [1]; [3]) [%] | degree of apoptosis relative to the staurosporine control (SH-SY5Y neuronal cells [1]; [4]) [%] | also measured |
| --- | --- | --- | --- | --- |
| O=C(C=Cc1ccc2c(c1)OCO2)Nc1ccccc1C(=O)O [derivative A, N-(3′,4′-methylenedioxycinnamoyl)-anthranilic acid] | significantly stimulates the differentiation of neural stem cells to neurons in a dose dependent manner | 3 | 27 | – |
| COc1ccc(C=CC(=O)Nc2ccccc2C)cc1OC [derivative B, 2-(3′,4′-dimethoxycinnamoylamino)-toluene] | significantly stimulates the differentiation of neural stem cells to neurons in a dose dependent manner | 7 | 79 | – |
| O=C(C=Cc1ccccc1)Nc1ccccc1C(=O)O [derivative C, N-cinnamoyl-anthranilic acid] | significantly stimulates the differentiation of neural stem cells to neurons in a dose dependent manner | 2 | 20 | – |
| COc1ccccc1NC(=O)C=Cc1ccc(OC)c(OC)c1 [derivative D, 2-(3′,4′-dimethoxycinnamoylamino)-anisole] | significantly stimulates the differentiation of neural stem cells to neurons in a dose dependent manner | 7 | 80 | – |
| COc1cccc(NC(=O)C=Cc2ccc(Cl)cc2)c1 [derivative E, 3-(4′-chlorocinnamoylamino)-anisole] | significantly stimulates the differentiation of neural stem cells to neurons in a dose dependent manner | – | – | anti-apoptotic effect: reduction of the staurosporine induced apoptosis (SH-SY5Y neuronal cells [1]): significant reduction of the staurosporine induced apoptosis; degree of apoptosis relative to the staurosporine control (SH-SY5Y neuronal cells [1]; compound 1 μM alone, FIG. 4b (control staurosporine 0.1 μM)): 6%; degree of apoptosis relative to the staurosporine control (SH-SY5Y neuronal cells [1]; compound 1 μM plus staurosporine (1 μM printed, 0.1 μM elsewhere in the source), FIG. 4b): 25% |
| CN[C@@H]1C[C@H]2O[C@@](C)([C@@H]1OC)n1c3ccccc3c3c4c(c5c6ccccc6n2c5c31)C(=O)NC4 [staurosporine] | – | – | – | degree of apoptosis relative to the staurosporine control (SH-SY5Y neuronal cells [1]; staurosporine 0.1 μM alone (positive control, reference), FIG. 4b): 100%; apoptosis (caspase-3/7 luminescence) relative to staurosporine (SH-SY5Y neuronal cells [1]; staurosporine 0.5 μM alone (positive control, reference)): 100% |
| COc1ccc(/C=C/C(=O)Nc2ccccc2C(=O)O)cc1OC [tranilast, 2-((3-(3,4-dimethoxyphenyl)-1-oxo-2-propenyl)amino)benzoic acid] | significantly stimulates the differentiation of neural stem cells to neurons | 8 | 75 | apoptosis (caspase-3/7 luminescence) relative to staurosporine (SH-SY5Y neuronal cells [1]; 0.8 μM tranilast plus 0.5 μM staurosporine, 5 h): 84%; apoptosis (caspase-3/7 luminescence) relative to staurosporine (SH-SY5Y neuronal cells [1]; 1.6 μM tranilast plus 0.5 μM staurosporine, 5 h): 74%; apoptosis (caspase-3/7 luminescence) relative to staurosporine (SH-SY5Y neuronal cells [1]; 3.1 μM tranilast plus 0.5 μM staurosporine, 5 h): 76%; apoptosis (caspase-3/7 luminescence) relative to staurosporine (SH-SY5Y neuronal cells [1]; 6.3 μM tranilast plus 0.5 μM staurosporine, 5 h): 74%; apoptosis (caspase-3/7 luminescence) relative to staurosporine (SH-SY5Y neuronal cells [1]; 12.5 μM tranilast plus 0.5 μM staurosporine, 5 h): 58%; apoptosis (caspase-3/7 luminescence) relative to staurosporine (SH-SY5Y neuronal cells [1]; 25 μM tranilast plus 0.5 μM staurosporine, 5 h): 46%; apoptosis (caspase-3/7 luminescence) relative to staurosporine (SH-SY5Y neuronal cells [1]; 50 μM tranilast plus 0.5 μM staurosporine, 5 h): 30%; apoptosis (caspase-3/7 luminescence) relative to staurosporine (SH-SY5Y neuronal cells [1]; 100 μM tranilast plus 0.5 μM staurosporine, 5 h): 15%; anti-apoptotic effect: reduction of the staurosporine induced apoptosis (SH-SY5Y neuronal cells [1]): significant reduction of the staurosporine induced apoptosis; effect on the viability of neuronal cells (Renilla luciferase activity) (SH-SY5Y neuronal cells [2]): did not show any significant effect on the viability of the neuronal cells |
